Assay results reported in patent US9521848B2, “Tetrazolinone compound and use therefor” (Sumitomo Chemical Company, Limited, priority 2013, dated 2016).

Assays:
[1] = system: cotton aphid (Aphis gossypii); test: Cotton aphid control test on cucumber, spray (Test Example 19); assay type: in vivo; details: 500 ppm, 20 mL sprayed on cucumber with 30 aphids; surviving insects counted after 6 days
Experimental: A water dilution (test chemical solution) containing a surfactant prepared by adjusting so as to contain a predetermined concentration (500 ppm) of the present compound 21 was used as a test chemical solution. Thirty (30) heads of cotton aphid (Aphis gossypii) (including adults and larvae) were released on the leaves of cucumber (cultivar; […]) grown in a polyethylene cup until the first true leaf was developed. Next day, 20 mL of the above test chemical solution was sprayed. After 6 days, the number of the surviving insects was counted and the control value was calculated by the following equation. Control value (%)={1-(Cb×Tai)/(Cai×Tb)}×100 wherein symbols in the equation represent the followings: Cb: Number of insects before spraying chemical solution in untreated area; Cai: Number of surviving insects in untreated area; Tb: Number of insects before spraying chemical solution in treated area; and Tai: Number of surviving insects in treated area.

[2] = system: wheat rust fungus (Puccinia recondita); test: Wheat rust control test, foliar spray before inoculation (Test Examples 3, 4, Comparative Test Example); assay type: in vivo; details: 200 ppm foliar spray, wheat (SHIROGANE), inoculated 5 days after spraying
Experimental: The control effect was evaluated by visually observing the area of lesion spots on each of test plants at the time of investigation, and comparing the area of lesion spots on a plant treated with the present compound with that on an untreated plant.
Each of plastic pots was filled with sandy loam and wheat (cultivar: SHIROGANE) was sowed and grown in a greenhouse for 9 days. Then, each water dilution containing a surfactant prepared by adjusting so as to contain a predetermined concentration (500 ppm) of any one compound of the present compounds 1, 18, 19, 20, 21, 27, 30, and 38 was sprayed over stems and leaves of the wheat so that it sufficiently adhered to the surface of the leaves of the wheat. After spraying, the plant was air-dried so as to dry the dilution on the surface of the leaves. After spraying, the plant was air-dried and cultivated at 20° C. for 5 days under illumination, and then inoculated by sprinkling with spores of wheat rust fungus (Puccinia recondita). After the inoculation, the plant was left to stand at 23° C. for one day under dark and high humidity condition, and cultivated under illumination at 20° C. for 8 days, and then the area of lesion spots was investigated.
Each of plastic pots was filled with sandy loam and wheat (cultivar: SHIROGANE) was sowed and grown in a greenhouse for 9 days. […]

SMILES | control value [1] [%] | area of lesion spots on the treated plant relative to that on an untreated plant [2] [%]
Cc1ccc(-c2cnc(OCc3c(C)cccc3-n3nnn(C)c3=O)c(C)c2)cc1 [Present Compound 21] | ≥ 90 | –
Cc1cccc(-n2nnn(C)c2=O)c1COc1cncc(Oc2ccccc2)c1 [1-[2-{5-phenoxypyridin-3-yloxymethyl}-3-methylphenyl]-4-methyl-1,4-dihydrotetrazol-5-one] | – | ≥ 70
